Tested on: HIV-1 (HIVIIIB)
Experiment: HIV-1 replication in MT2 cell line with and without 30% human serum (viral RT activity in supernatant)
Type: cell-based
Details: Human immunodeficiency virus 1, MT2, MT-2 cells, with 30% human serum, average IC50 if tested more than once, read-out: MT-2 (HIVIIIB) with 30% HS IC50 range
Description: HIV-1 Replication in MT2 cell line with and without 30% human serum: The cells are infected at a Multiciplicity of Infection (MOI) of 0.5 for 3 h and then washed twice with complete media to remove residual virus. Cells are then resuspended at 0.5×10^6/ml in complete medium (RPMI, 10% FBS, 1% sodium pyruvate), and seeded into 96-well plates (6.25×10^4/well). The cells are cultured in the presence or absence of various concentrations of test compounds in serial dilutions for 3 days at 37° C. The test compounds are serially diluted in complete medium supplemented or not with 30% human serum. After 3 days, 100 μL of cultured medium with cells are replaced with 120 μL of freshly diluted test compounds in complete medium containing or not 30% Human serum. The level of HIV-1 replication is determined at days 5 after infection by the presence of viral RT activity in harvested supernatant fluid. The IC50 and IC90 values for the virus replication are determined by using GRAPHPAD PRISM software.
The IC50 of the compounds tested in accordance with the HIV replication activity assay MT-2 (HIVIIIB) are represented in Table 4 (without HS) and Table 5 (with 30% HS)

| Compound | IC50 [nM] |
| --- | --- |
| CC(C)C1=C2C3CCC4[C@@]5(C)CC[C@H](OC(=O)CC(C)(C)C(=O)O)C(C)(C)C5CC[C@@]4(C)[C@]3(C)CC[C@@]2(C(=O)NC(C)(C)C(F)(F)F)CC1=O (stereo partly drawn) [9-77, 3β-O-(3′,3′-Dimethylsuccinyl)-21-oxolup-18-en-28-oic acid N-(2,2,2-trifluoro-1,1-dimethyl-ethyl)-acetamide] | < 199 |
| CC(=O)N1CCN(C(=O)[C@@]23CC[C@]4(C)[C@H](CC[C@@H]5[C@@]6(C)CC[C@H](OC(=O)CC(C)(C)C(=O)O)C(C)(C)[C@@H]6CC[C@]54C)C2=C(C(C)C)C(=O)C3)CC1 [9-8, 3β-O-(3′,3′-Dimethylsuccinyl)-21-oxolup-18-en-28-oic acid N-(4-acetylpiperazinyl) acetamide] | < 199 |
| CC(C)C1=C2[C@H]3CC[C@@H]4[C@@]5(C)CC[C@H](OC(=O)CC(C)(C)C(=O)O)C(C)(C)[C@@H]5CC[C@@]4(C)[C@]3(C)CC[C@@]2(C(=O)NC2CCNCC2)CC1=O [9-31, 3β-O-(3′,3′-Dimethylsuccinyl)-21-oxolup-18-en-28-oic acid N-(4-aminopiperidine)-acetamide] | 200 to 999 |
| CC(C)C1=C2[C@H]3CC[C@@H]4[C@@]5(C)CC[C@H](OC(=O)CC(C)(C)C(=O)O)C(C)(C)[C@@H]5CC[C@@]4(C)[C@]3(C)CC[C@@]2(C(=O)NCCN2CCCC2)CC1=O [9-61, 3β-O-(3′,3′-Dimethylsuccinyl)-21-oxolup-18-en-28-oic acid N-(2-pyrrolidin-1-yl-ethyl)-acetamide] | < 199 |
| CC(C)NC(=O)NCCNC(=O)[C@@]12CC[C@]3(C)[C@H](CC[C@@H]4[C@@]5(C)CC[C@H](OC(=O)CC(C)(C)C(=O)O)C(C)(C)[C@@H]5CC[C@]43C)C1=C(C(C)C)C(=O)C2 [9-23, 3β-O-(3′,3′-Dimethylsuccinyl)-21-oxolup-18-en-28-oic acid N-[2-(3-isopropyl-ureido)-ethyl]-acetamide] | < 199 |
| CC(C)C1=C2[C@H]3CC[C@@H]4[C@@]5(C)CC[C@H](OC(=O)CC(C)(C)C(=O)O)C(C)(C)[C@@H]5CC[C@@]4(C)[C@]3(C)CC[C@@]2(C(=O)Nc2ccncc2)CC1=O [9-52, 3β-O-(3′,3′-Dimethylsuccinyl)-21-oxolup-18-en-28-oic acid N-pyridin-4-yl-acetamide] | < 199 |
| CC(C)C1=C2[C@H]3CC[C@@H]4[C@@]5(C)CC[C@H](OC(=O)CC(C)(C)C(=O)O)C(C)(C)[C@@H]5CC[C@@]4(C)[C@]3(C)CC[C@@]2(C(=O)N2CCN(C)CC2)CC1=O [9-9, 3β-O-(3′,3′-Dimethylsuccinyl)-21-oxolup-18-en-28-oic acid N-(4-methylpiperazinyl) acetamide] | < 199 |
| COC(=O)NCCNC(=O)[C@@]12CC[C@]3(C)[C@H](CC[C@@H]4[C@@]5(C)CC[C@H](OC(=O)CC(C)(C)C(=O)O)C(C)(C)[C@@H]5CC[C@]43C)C1=C(C(C)C)C(=O)C2 [9-24, 3β-O-(3′,3′-Dimethylsuccinyl)-21-oxolup-18-en-28-oic acid N-(2-acetylamino-ethyl)-carbamic acid methyl ester] | < 199 |
| CC(C)C1=C2[C@H]3CC[C@@H]4[C@@]5(C)CC[C@H](OC(=O)CC(C)(C)C(=O)O)C(C)(C)[C@@H]5CC[C@@]4(C)[C@]3(C)CC[C@@]2(C(=O)Nc2ccccc2C(F)(F)F)CC1=O [9-65, 3β-O-(3′,3′-Dimethylsuccinyl)-21-oxolup-18-en-28-oic acid N-2-trifluoromethyl-phen-1-yl acetamide] | < 199 |
| CC(C)C1=C2C3CCC4[C@@]5(C)CC[C@H](OC(=O)CC(C)(C)C(=O)O)C(C)(C)C5CC[C@@]4(C)[C@]3(C)CC[C@@]2(C(=O)NC[C@H]2CCCN2C(=O)OC(C)(C)C)CC1=O (stereo partly drawn) [9-79, 3β-O-(3′,3′-Dimethylsuccinyl)-21-oxolup-18-en-28-oic acid N-(R)-2-acetylaminomethyl-pyrrolidine-1-carboxylic acid tert-butyl ester] | < 199 |
| Cc1ncncc1NC(=O)[C@@]12CC[C@]3(C)[C@H](CC[C@@H]4[C@@]5(C)CC[C@H](OC(=O)CC(C)(C)C(=O)O)C(C)(C)[C@@H]5CC[C@]43C)C1=C(C(C)C)C(=O)C2 [9-55, 3β-O-(3′,3′-Dimethylsuccinyl)-21-oxolup-18-en-28-oic acid N-4-methyl-pyrimidin-5-yl-acetamide] | < 199 |
| COc1ccc(CNC(=O)[C@@]23CC[C@]4(C)[C@H](CC[C@@H]5[C@@]6(C)CC[C@H](OC(=O)CC(C)(C)C(=O)O)C(C)(C)[C@@H]6CC[C@]54C)C2=C(C(C)C)C(=O)C3)cc1 [9-15, 3β-O-(3′,3′-Dimethylsuccinyl)-21-oxolup-18-en-28-oic acid N-4-methoxy-benzylamide] | < 199 |
| CC(C)C1=C2[C@H]3CC[C@@H]4[C@@]5(C)CC[C@H](OC(=O)CC(C)(C)C(=O)O)C(C)(C)[C@@H]5CC[C@@]4(C)[C@]3(C)CC[C@@]2(C(=O)N2C3CCC2CN(C(=O)c2ccccc2)C3)CC1=O [9-36, 3β-O-(3′,3′-Dimethylsuccinyl)-21-oxolup-18-en-28-oic acid N-(8-amino-3,8-diaza-bicyclo[3.2.1]octane-3-benzamide)-acetamide] | < 199 |
| CC(C)C1=C2[C@H]3CC[C@@H]4[C@@]5(C)CC[C@H](OC(=O)CC(C)(C)C(=O)O)C(C)(C)[C@@H]5CC[C@@]4(C)[C@]3(C)CC[C@@]2(C(=O)Nc2cnc3ccccc3c2)CC1=O [9-60, 3β-O-(3′,3′-Dimethylsuccinyl)-21-oxolup-18-en-28-oic acid N-quinolin-3-yl-acetamide] | < 199 |
| CC(C)C1=C2[C@H]3CC[C@@H]4[C@@]5(C)CC[C@H](OC(=O)CC(C)(C)C(=O)O)C(C)(C)[C@@H]5CC[C@@]4(C)[C@]3(C)CC[C@@]2(C(=O)Nc2cccnc2)CC1=O [9-26, 3β-O-(3′,3′-Dimethylsuccinyl)-21-oxolup-18-en-28-oic acid N-pyridin-3-yl-acetamide] | < 199 |
| CC(C)C1=C2[C@H]3CC[C@@H]4[C@@]5(C)CC[C@H](OC(=O)CC(C)(C)C(=O)O)C(C)(C)[C@@H]5CC[C@@]4(C)[C@]3(C)CC[C@@]2(C(=O)Nc2cnn(C)c2)CC1=O [9-57, 3β-O-(3′,3′-Dimethylsuccinyl)-21-oxolup-18-en-28-oic acid N-4-amino-1-methyl-1H-pyrazole acetamide] | < 199 |
| CC(=O)N1CC2CCC(C1)N2C(=O)[C@@]12CC[C@]3(C)C(CCC4[C@@]5(C)CC[C@H](OC(=O)CC(C)(C)C(=O)O)C(C)(C)C5CC[C@]43C)C1=C(C(C)C)C(=O)C2 (stereo partly drawn) [9-95, 3β-O-(3′,3′-Dimethylsuccinyl)-21-oxolup-18-en-28-oic acid N-8-acetylamino-3,8-diaza-bicyclo[3.2.1]octane-3-acetamide] | < 199 |
| CC(C)C1=C2[C@H]3CC[C@@H]4[C@@]5(C)CC[C@H](OC(=O)CC(C)(C)C(=O)O)C(C)(C)[C@@H]5CC[C@@]4(C)[C@]3(C)CC[C@@]2(C(=O)Nc2cnccn2)CC1=O [9-59, 3β-O-(3′,3′-Dimethylsuccinyl)-21-oxolup-18-en-28-oic acid N-pyrazin-2-yl-acetamide] | < 199 |
| CC(C)C1=C2C3CCC4[C@@]5(C)CC[C@H](OC(=O)CC(C)(C)C(=O)O)C(C)(C)C5CC[C@@]4(C)[C@]3(C)CC[C@@]2(C(=O)N(C)C(C)(C)C)CC1=O (stereo partly drawn) [9-78, 3β-O-(3′,3′-Dimethylsuccinyl)-21-oxolup-18-en-28-oic acid N-tert-butyl-N-methyl-acetamide] | < 199 |
| CC(C)C1=C2[C@H]3CC[C@@H]4[C@@]5(C)CC[C@H](OC(=O)CC(C)(C)C(=O)O)C(C)(C)[C@@H]5CC[C@@]4(C)[C@]3(C)CC[C@@]2(C(=O)N(C)Cc2ccccc2)CC1=O [9-11, 3β-O-(3′,3′-Dimethylsuccinyl)-21-oxolup-18-en-28-oic acid N-methyl-N-benzylamide] | < 199 |
| CC(C)C1=C2[C@H]3CC[C@@H]4[C@@]5(C)CC[C@H](OC(=O)CC(C)(C)C(=O)O)C(C)(C)[C@@H]5CC[C@@]4(C)[C@]3(C)CC[C@@]2(C(=O)N2CCCCC2)CC1=O [9-6, 3β-O-(3′,3′-Dimethylsuccinyl)-21-oxolup-18-en-28-oic acid N-piperidinyl acetamide] | < 199 |
| Cc1nnc(NC(=O)[C@@]23CC[C@]4(C)[C@H](CC[C@@H]5[C@@]6(C)CC[C@H](OC(=O)CC(C)(C)C(=O)O)C(C)(C)[C@@H]6CC[C@]54C)C2=C(C(C)C)C(=O)C3)s1 [9-76, 3β-O-(3′,3′-Dimethylsuccinyl)-21-oxolup-18-en-28-oic acid N-(5-methyl-[1,3,4]thiadiazol-2-yl)-acetamide] | < 199 |
| Cc1cc(C)nc(NC(=O)[C@@]23CC[C@]4(C)[C@H](CC[C@@H]5[C@@]6(C)CC[C@H](OC(=O)CC(C)(C)C(=O)O)C(C)(C)[C@@H]6CC[C@]54C)C2=C(C(C)C)C(=O)C3)n1 [9-58, 3β-O-(3′,3′-Dimethylsuccinyl)-21-oxolup-18-en-28-oic acid N-4,6-dimethyl-pyrimidin-2-yl-acetamide] | < 199 |
| CC(C)C1=C2[C@H]3CC[C@@H]4[C@@]5(C)CC[C@H](OC(=O)CC(C)(C)C(=O)O)C(C)(C)[C@@H]5CC[C@@]4(C)[C@]3(C)CC[C@@]2(C(=O)N2C3CCC2CN(C(=O)OC(C)(C)C)C3)CC1=O [9-50, 3β-O-(3′,3′-Dimethylsuccinyl)-21-oxolup-18-en-28-oic acid N-8-acetylamino-3,8-diaza-bicyclo[3.2.1]octane-3-carboxylic acid tert-butyl ester] | < 199 |
